A short description of data set [1]: Stability in aqueous buffer at 100 uM to 2 mM by 1H 1D NMR spectroscopy. It is filed as physicochemical.
Data set [2] in a line: Solubility in pH 7.5 aqueous buffer at 25 degC by 1H 1D NMR spectroscopy. It is filed as physicochemical.
Data set [3] has as its system SK-MEL-28. Nature of the data set: Induction of apoptosis in human SK-MEL-28 cells assessed as increase in caspase-3/7 activity at […] incubated for 36 hrs by IncuCyteS3 caspase-3/7 fluorescence-based apoptosis assay. Format: functional, cell-based.
Data set [4] has as its system A549. Briefly: Induction of apoptosis in human A549 cells assessed as increase in caspase-3/7 activity at […] incubated for 36 hrs by IncuCyteS3 caspase-3/7 fluorescence-based apoptosis assay. It is filed as functional, cell-based.
The subject of data set [5] is SK-MEL-28. Nature of the data set: Induction of apoptosis in human SK-MEL-28 cells assessed as increase in caspase-3/7 activity at […] incubated for 36 hrs in presence of 1 ng/mL TNFlpha by IncuCyteS3 caspase-3/7 fluorescence-based apoptosis assay. It is filed as functional, cell-based.
The test system of data set [6] is A549. Nature of the data set: Induction of apoptosis in human A549 cells assessed as increase in caspase-3/7 activity at […] incubated for 36 hrs in presence of 1 ng/mL TNFlpha by IncuCyteS3 caspase-3/7 fluorescence-based apoptosis assay. It is filed as functional, cell-based.
Data set [7] relates to SK-MEL-28. Briefly: Cytotoxicity in human SK-MEL-28 cells assessed as reduction in cell viability in presence of 1 ng/mL TNFlpha measured every 3 hrs for 4 days by IncuCyteS3 live-cell analysis system based assay. Format: functional.
For data set [8], the system named is A549. Nature of the data set: Cytotoxicity in human A549 cells assessed as reduction in cell viability in presence of 1 ng/mL TNFlpha measured every 3 hrs for 4 days by IncuCyteS3 live-cell analysis system based assay. Format: functional.
Data set [9] concerns the target Baculoviral IAP repeat-containing protein 2 (Homo sapiens) (UniProt Q13490). Briefly: Binding affinity to N-terminal 6x-His-tagged recombinant human cIAP1-BIR3 (258 to 363 residues) expressed in Escherichia coli assessed as increase in […] domain mass at protein-compound ratio of 1:10 incubated for 6 hrs at 25 degC by LC-MS analysis relative to control.
The nature of data set [10]: Stability in mouse plasma assessed as half life at 200 uM at 37 degC incubated up to 120 mins by mass spectrometry. Format: ADME, cell-free. The following applies: 2 h.
Data set [11] concerns the target T1, Baculoviral IAP repeat-containing protein 3 (Homo sapiens, UniProt Q13489). Nature of the data set: Inhibition of N-terminal 6x-His-tagged recombinant human cIAP2-BIR3 (244 to 349 residues) expressed in Escherichia coli incubated for 2 hrs without 6 hrs pre-incubation with enzyme by biotinylated AVPI peptide based DELFIA.
For data set [12], the target named is T1, Baculoviral IAP repeat-containing protein 3. Briefly: Inhibition of N-terminal 6x-His-tagged recombinant human cIAP2-BIR3 (244 to 349 residues) expressed in Escherichia coli incubated for 2 hrs after 6 hrs pre-incubation with enzyme by biotinylated AVPI peptide based DELFIA.
Data set [13] addresses T2, E3 ubiquitin-protein ligase XIAP (Homo sapiens, UniProt P98170).
In data set [14] the target is T2, E3 ubiquitin-protein ligase XIAP. This is another data set of the same source.
Data set [15] shares this target. The source holds these as a separate data set.
Data set [16] shares this target. This is another data set of the same source.

Experimental findings from ChEMBL document CHEMBL4414592, “Aryl-fluorosulfate-based Lysine Covalent Pan-Inhibitors of Apoptosis Protein (IAP) Antagonists with Cellular Efficacy” (J Med Chem, 2019) are described below.

The source made the active and inactive calls. The calls are words filed in the database; no cut-off is given here.

T2 sequence (P98170 whole entry): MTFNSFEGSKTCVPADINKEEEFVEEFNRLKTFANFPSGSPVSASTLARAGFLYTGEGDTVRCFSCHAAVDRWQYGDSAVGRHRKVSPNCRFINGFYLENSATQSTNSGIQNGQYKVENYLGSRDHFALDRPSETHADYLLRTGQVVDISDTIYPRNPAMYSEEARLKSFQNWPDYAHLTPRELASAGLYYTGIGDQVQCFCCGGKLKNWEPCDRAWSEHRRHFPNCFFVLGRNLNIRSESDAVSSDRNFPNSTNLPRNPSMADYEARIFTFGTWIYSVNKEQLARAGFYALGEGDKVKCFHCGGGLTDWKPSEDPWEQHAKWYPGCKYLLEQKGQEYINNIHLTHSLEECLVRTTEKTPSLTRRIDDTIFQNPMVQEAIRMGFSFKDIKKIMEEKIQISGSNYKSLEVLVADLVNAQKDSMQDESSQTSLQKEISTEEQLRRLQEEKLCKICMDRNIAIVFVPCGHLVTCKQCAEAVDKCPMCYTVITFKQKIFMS
T1 sequence (Q13489 whole entry, the tested form may be a part): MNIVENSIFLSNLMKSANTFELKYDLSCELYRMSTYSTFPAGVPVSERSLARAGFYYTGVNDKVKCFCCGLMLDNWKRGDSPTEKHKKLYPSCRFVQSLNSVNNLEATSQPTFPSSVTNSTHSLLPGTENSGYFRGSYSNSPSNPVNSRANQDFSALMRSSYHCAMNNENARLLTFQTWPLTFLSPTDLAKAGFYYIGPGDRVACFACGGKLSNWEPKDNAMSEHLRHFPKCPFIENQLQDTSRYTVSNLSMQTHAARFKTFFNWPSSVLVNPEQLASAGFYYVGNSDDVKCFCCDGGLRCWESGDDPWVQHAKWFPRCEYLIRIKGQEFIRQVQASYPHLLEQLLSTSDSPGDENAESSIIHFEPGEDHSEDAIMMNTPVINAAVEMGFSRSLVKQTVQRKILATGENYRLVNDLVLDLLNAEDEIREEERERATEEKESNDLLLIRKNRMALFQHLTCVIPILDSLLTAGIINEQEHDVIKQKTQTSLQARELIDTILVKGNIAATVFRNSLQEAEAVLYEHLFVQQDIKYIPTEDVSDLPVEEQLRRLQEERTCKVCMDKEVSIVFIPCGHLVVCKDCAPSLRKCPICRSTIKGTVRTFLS
Chain of Baculoviral IAP repeat-containing protein 2 (Homo sapiens) (Q13490 whole entry, the tested form may be a part): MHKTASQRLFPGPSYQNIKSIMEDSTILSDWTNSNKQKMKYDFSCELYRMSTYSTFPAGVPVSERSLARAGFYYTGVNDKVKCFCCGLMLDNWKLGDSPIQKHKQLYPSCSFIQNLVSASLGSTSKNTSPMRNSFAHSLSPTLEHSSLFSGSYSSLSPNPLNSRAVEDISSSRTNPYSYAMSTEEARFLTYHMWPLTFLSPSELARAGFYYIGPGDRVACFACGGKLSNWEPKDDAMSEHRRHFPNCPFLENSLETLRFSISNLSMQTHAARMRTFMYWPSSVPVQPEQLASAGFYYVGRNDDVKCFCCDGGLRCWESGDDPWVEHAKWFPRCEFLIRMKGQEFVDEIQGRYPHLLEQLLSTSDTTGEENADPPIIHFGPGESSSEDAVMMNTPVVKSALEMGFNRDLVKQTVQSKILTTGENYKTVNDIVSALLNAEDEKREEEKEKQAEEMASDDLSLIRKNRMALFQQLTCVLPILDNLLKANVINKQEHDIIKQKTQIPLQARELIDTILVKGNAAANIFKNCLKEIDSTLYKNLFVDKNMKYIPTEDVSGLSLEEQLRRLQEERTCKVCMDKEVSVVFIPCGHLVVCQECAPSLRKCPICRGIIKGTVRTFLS

Take `CN[C@@H](C)C(=O)N[C@H](C(=O)N1CCC[C@H]1C(=O)N[C@@H]1CCc2c(OS(=O)(=O)F)cccc21)C1CCCCC1`: in data set [1], the Stability result is listed as “Stable”. The solubility entry in data set [2] was “<= 2 mM”. Moreover, the result in data set [3] and in [4] was inactive. The Activity result in data set [5], in data set [6], in data set [7] and in data set [8] was “Dose-dependent effect” in each case.

Regarding `CN[C@@H](C)C(=O)N[C@@H](Cc1ccc(OS(=O)(=O)F)cc1)C(=O)N1CCC[C@H]1C(=O)N[C@@H]1CCc2c(F)cccc21`, the result in [3], in data set [4] and in [9] was inactive. For the same compound, the Activity entry in [5], in data set [6], in [7] and in data set [8] was “Dose-dependent effect” each time.

As to `CN[C@@H](C)C(=O)NC(Cc1cc(C)c(C(F)(F)F)cc1F)C(=O)N1CCC[C@H]1C(=O)N[C@@H]1CCc2c(OS(=O)(=O)F)cccc21` (mixture of isomers), the solubility entry in data set [2] is “<= 1 mM”. Also, in data set [10], the Stability result is on record as “Stable”. In addition, the outcome in [3] and in data set [4] was inactive. Moreover, the Activity result in [5], in data set [6], in data set [7] and in data set [8] was “Dose-dependent effect” each time.

With `CN[C@@H](C)C(=O)N[C@H](C(=O)N1CCC[C@H]1c1nc(C(=O)c2ccc(F)cc2)cs1)C1CCCCC1` [LCL-161], the Stability entry in [10] is given as “Stable”. Besides, the outcome in [3] and in data set [4] was inactive. Besides, the Activity result in data set [5], in data set [6], in [7] and in data set [8] was “Dose-dependent effect” throughout.

The term IC50 denotes the concentration that gives 50% inhibition. The term ΔTm denotes the change in melting temperature against a reference sample. As for `CN[C@@H](C)C(=O)N[C@H]1CN(C(=O)CC(C)C)CC[C@H]2CC[C@@H](C(=O)NC(c3ccccc3)c3ccccc3)N2C1=O` [XEVINAPANT], the 50% inhibitory concentration (IC50) in data set [11] was 44 nM; in [12], 133 nM; in [13], 42 nM; in data set [14] it was 47.8 nM. Also, the Stability entry in data set [10] is “Stable”. The outcome in [3] and in [4] was inactive. Further, the Activity result in [5], in data set [6], in [7] and in data set [8] was “Dose-dependent effect” each time. The shift in melting temperature (ΔTm) in [15] was 17 °C; in data set [16], 19 °C.
